Assay results as given in patent US10488418B2, “Fluorescence assay for intestinal permeability” (THE REGENTS OF THE UNIVERSITY OF CALIFORNIA, priority 2014, dated 2019).
Read-outs that look alike come from different tables or passages of the source. Blank lines part the entries; values can stand above or below the molecule they belong to.

How the values were obtained:
[1] = human, in vivo
Procedure: (§2) Intestinal permeability test in humans: Subjects consumed 0.5-1.0 L water the night before and in the morning about 3 hour prior to sample collection. The first morning urine was voided. No food or other beverages were consumed prior to the test. Permeability probes were ingested after baseline urine collection. […] Test subjects were permitted to drink water or coffee as desired. Light snacks were permitted after the fourth hour. Urine volumes were recorded and 50 mL was retained for analysis.
(§3) Sample collection: Freshly collected urine (50 ml) was first centrifuged 2500 RCF at 4° C. for 10 minutes.
(§4) Supernatants were pipetted 40 μL/well in duplicate into plates (#3694, Corning, USA). Fluorescence (Exc/Em 450/580 nm) was read on a plate reader (Infinite M200Pro, Tecan, Switzerland). Concentration was calculated as mg/mL and multiplied by total urine volume in mL, giving total mg in urine. The mg in urine/mg ingested×100 yielded % ingested.
(§5) The SPE column was cleaned with MeOH and H2O between runs. […] Data was corrected for a 9% loss. After SPE, samples were directed to the various assays.
(§6) Viologen method for lactulose and mannitol permeability in humans: Ready-made assay 96 well plates were prepared (#3694, Corning, 199 USA). A 4× premix buffer was prepared (0.1 M sodium phosphate, 0.1 M HEPES, 0.04% Triton X-100, pH 7.4). To this was added HPTS (16 μM) and quencher (1.6 mM 4,4′oBBV or 2.0 mM 4,4′oMBV), each 4 times above final concentration. The different viologen concentrations were chosen to achieve similar extents of quenching in the absence of sugar (about 20% of free fluorophore) while preserving a strong signal to noise (S/N). Blank wells were given 10 μl 4× premix buffer with neither HPTS nor viologen. Some wells received 16 μM HPTS without quencher to determine maximum possible fluorescence. All other wells received 10 μl of the complete 4× premix. Those premixes containing 4,4′oBBV were continuously vortexed because the mixture is a suspension. Plates were sealed with plate tape and stored at 4° C. until use.
(§7) Upon running an assay, 30 μl of standards or samples were pipetted into wells. Final concentrations were 4 μM HPTS and 400 μM 4,4′oBBV or 500 μM 4,4′oMBV. Urine samples were placed in both blank wells (for individual sample blanking) and wells containing complete 4× premix. Plates were put on a shaker for 1 hr, RT. During this time, sugars interacted with the HPTS-viologen complex, liberating HPTS into solution. Plates were then centrifuged at 2500 RCF for 10 minutes at room temperature to pull down remaining HPTS-quencher particulate matter. Plate tape was removed and fluorescence read on a plate reader (Tecan M-200 Infinite, gain 70, 404/535 nm). The height was adjusted to read from the top of the solution (18 mm). […] A Marquardt 4-parameter curve fit was used. Sugar concentrations were calculated as g/mL and multiplied by total urine volume in mL, giving total amount of urine in grams. Values were corrected for percentage recovery from the C18 SPE step. The g in urine/g ingested×100 yielded % ingested. Lactulose measurements were confirmed by enzyme assay. Mannitol measurements were confirmed by HPLC-Evaporative Light Scattering Detector (HPLC-ELSD) using a C8 pre-column and Prevail Carbohydrate ES 5μ 250×4.6 mm column (Grace Davison 224 Discovery Sciences, Ill., USA) with 80:20 MeCN/H2O.

[2] = Viologen based fluorescence assay for sugars in urine with 4,4′oBBV and HPTS; parameters: species or system human
From the text: (§1) A Marquardt 4-parameter curve fit was used. […] The g in urine/g ingested×100 yielded % ingested. Lactulose measurements were confirmed by enzyme assay.
Statistics: The lower limit of detection (LLOD) was defined as the analyte concentration in the urine sample at which fluorescence intensity in the assay was 3 standard deviations above the mean baseline fluorescence. Similarly, the lower limit of quantification (LLOQ) was defined as 10 standard deviations above the mean baseline fluorescence. Coefficient of variation percent (CV %) was determined by averaging sets of samples each measured in 4 wells. Results are given as mean±SEM.

[3] = Quenching of HPTS fluorescence by boronic acid viologen in absence of sugar
Procedure: as §1
The term “Initial quench” as used herein refers to HPTS fluorescence in presence of quencher and absence of sugar (maximum achievable quench) as a percent of maximum possible fluorescence with 4 μM free HPTS in absence of any quencher. The term “LLOD” as used herein refers to analyte concentration in original urine sample (as opposed to final concentration in the assay) at which the fluorescence signal equals or exceeds 3 standard deviations above mean assay noise level. The term “LLOQ” as used herein refers to analyte concentration in original urine sample at which the fluorescence signal equals or exceeds 10 standard deviations above mean assay noise level. The term “range” as used herein refers to urine concentrations found in healthy volunteers before transforming data to % ingested. The term “Mean±SEM” as used herein refers to standard mean plus or minus standard error of mean as generally understood in medical science. The term “CV %” as used herein refers to intra-assay coefficient of variation for samples.

[4] = Intestinal permeability test in humans (urine excretion of ingested probes)
Procedure: as §2, §3, §4, §5, §6, §7

[5] = viologen assay system, viologen not specified

Typical values for humans (urine concentration) [1]: 0.2 to 1.5 mM
SMILES: OC[C@H]1O[C@@H](O[C@@H]2[C@@H](CO)OC(O)(CO)[C@H]2O)[C@H](O)[C@@H](O)[C@H]1O (mixture of isomers) [Lactulose, lactulose]
signal stronger than fructose [2, 5]: ~20%

SMILES: OB(O)c1ccccc1C[n+]1ccc(-c2cc[n+](Cc3ccccc3B(O)O)cc2)cc1 [4,4′oBBV, 1,1′-bis(2-boronobenzyl)-4,4′-bipyridinium]
Relative selectivity ([2]; 4,4′oBBV): lactulose>fructose>galactose

SMILES: OB(O)c1ccccc1C[n+]1ccc(-c2cc[n+](Cc3ccccc3)cc2)cc1 [4,4′oMBV, 1-(2-boronobenzyl)-1′-benzyl-4,4′-bipyridinium]
Initial Quench % Max ([3]; HPTS fluorescence with quencher and no sugar, as percent of 4 μM free HPTS, final 400 μM 4,4′oBBV or 500 μM 4,4′oMBV): 16%
higher concentration required than 4,4′oBBV to achieve the same extent of quenching ([3]; HPTS quenching, 0 μM sugar): about 20%

time of return to baseline in urine after ingestion [1]: about 6 hours
Typical values for humans (urine concentration) ([4]; human urine): 1 to 10 mM
RANGE (urine concentrations found in healthy volunteers) ([4]; human urine after oral 50 mg riboflavin, 5 g mannitol or 10 g lactulose, mean±SEM, sugars measured with 4,4′oBBV): 3929 ± 972 µM
SMILES: OC[C@@H](O)[C@@H](O)[C@H](O)[C@H](O)CO [Mannitol, mannitol]

Typical values for humans (urine concentration) [1]: 0.01 to 0.1 mM
time of return to baseline in urine after ingestion [1]: about 6 hours
SMILES: Cc1cc2nc3c(=O)[nH]c(=O)nc-3n(C[C@H](O)[C@H](O)[C@H](O)CO)c2cc1C [Riboflavin, riboflavin]

SMILES: OC[C@H]1O[C@@H](O[C@H]2[C@H](O)[C@@H](O)C(O)O[C@@H]2CO)[C@H](O)[C@@H](O)[C@H]1O (stereo partly shown) [lactose]
response of 4,4′oBBV to sugar ([2]; 10 mM sugar): essentially no response

SMILES: OC[C@H]1O[C@H](O[C@]2(CCl)O[C@H](CCl)[C@@H](O)[C@@H]2O)[C@H](O)[C@@H](O)[C@H]1Cl [sucralose]
interference with the viologen based method [2]: Neither sucrose nor sucralose interfere

SMILES: OC[C@H]1O[C@@](CO)(O[C@H]2O[C@H](CO)[C@@H](O)[C@H](O)[C@H]2O)[C@@H](O)[C@@H]1O [sucrose]
interference with the viologen based method [2]: Neither sucrose nor sucralose interfere
fluorescence signal [2, 5]: no signal

SMILES: O=C(CO)[C@@H](O[C@H]1O[C@H](CO)[C@@H](O)[C@H](O)[C@H]1O)[C@H](O)[C@H](O)CO [turanose]
fluorescence as percent of fructose [2, 5]: ~30%
fluorescence as percent of the lactulose fluorescence [2, 5]: ~20%
